Assay results from patent US12594282B2, “Use of small molecule compounds in the treatment of diseases mediated by lung epithelial cell injury and/or vascular endothelial cell injury” (Guangzhou Cellprotek Pharmaceutical Co., Ltd., priority 2020, dated 2026).

Tests used:
PFKFB3 = assay: Glutamate-induced PFKFB3 expression in primary cerebellar granule neurons (Western blot); format: cell-based, mice; conditions: 10 μM, pre-incubation 20 mins; 200 μM glutamate for 5 mins and 15 mins
Experimental: The cells were obtained from SD P7-8 neonatal mice. The cerebellum was taken, and the meninges and blood vessels were removed using microtweezers; the isolated cerebellar tissue was transferred to another dish containing dissection solution. The tissue was cut into pieces as small as possible using a tissue scissor. Digestion: The tissue in pieces was added into 7 mL of 0.25% trypsin digestive solution with a pipet, and was digested at 37° C. for 15 mins; the bench surface was cleaned and the instruments were washed. The container was turned upside down several times every five minutes to bring the tissue into better contact with the digestive solution. End of digestion: After the digestion, it can be seen that the tissue was sticked together and suspended in the liquid due to cell disruption and release of DNA. The digestion was terminated by adding 3 mL of […] 10% FBS DMEM medium. The container was turned upside down several times, and it can be observed that the remaining tissue dispersed due to DNA hydrolysis. Centrifugation was performed at 1000 rpm for 5 mins. As much supernatant as possible was carefully removed. Collection of single cell suspension: 7 mL of DNase-containing 10% FBS DMEM medium was taken with a pipet, by which the tissue pellet was gently pipeted. […] The cells were counted with a hand-held cell counter, and the seeding density was 4.0-5.0×10^5 cells/mL. […]

[1] = tested on: acute hypobaric hypoxia-induced lung injury; assay: Acute hypobaric hypoxia-induced lung injury in Macaca fascicularis (HE pathology); format: in vivo; conditions: 7500 meters for 48 hours
Experimental: Twenty-four healthy male Macaca fascicularis, 6 to 6.5 years-old, weighted 6.5-7.5 kg, were purchased from Kangda Laboratory Animal Center, Gaoyao City, Guangdong, China, in which 17 male Macaca fascicularis were divided into 3 groups, as shown in the following table:
Three Macaca fascicularis housed in the animal room were randomly selected each time. For each animal, 10 ml of blood was collected, and 10 ml of glucose normal saline was injected intravenously, and marked. The animals were then housed in a low-pressure chamber for 1 day to acclimate to the experimental environment. In the acute hypobaric hypoxia group, the altitude was simulated to 3000 meters at a speed of 3 m/s; after the animals stayed in the low-pressure chamber at a simulated altitude of 3000 meters for 30 minutes, 10 ml of blood was taken from each animal and 10 ml of glucose saline was injected intravenously; the altitude was then simulated to 4500 meters at a speed of 3 m/s; after the animals stayed in the low-pressure chamber at a simulated altitude of 4500 meters for 30 minutes, 10 ml of blood was taken from each animal and 10 ml of glucose saline was injected intravenously; the altitude was simulated to 6000 meters at a speed of 3 m/s; after the animals stayed in the low-pressure chamber at a simulated altitude of 6000 meters for 30 minutes, 10 ml of blood was taken from each animal and 10 ml of glucose saline was injected intravenously; the altitude was simulated to 7500 meters at a speed of 2 m/s; after the animals stayed at a simulated altitude of 7500 meters in the low-pressure chamber for 24 hours, the altitude was lowered to 6000 meters at a speed of 3 m/s, and 10 ml of blood was taken from each animal and 10 ml of glucose saline was injected intravenously; the altitude was simulated to 7500 meters at a speed of 2 m/s; after staying at 7500 meters for 48 hours, the altitude was lowered to 6000 meters at a speed of 3 m/s, the animals were anesthetized (0.06 ml/kg ketamine hydrochloride injection, 0.02 ml/kg xylazine hydrochloride injection), and sacrificed by carotid bloodletting, and dissected and subject to sampling, and the samples were then fixed. The Macaca fascicularis in the normobaric normoxia control group were anesthetized (0.06 ml/kg ketamine hydrochloride injection, 0.02 ml/kg xylazine hydrochloride injection) in the plain (an altitude of 352 meters), then sacrificed by carotid bloodletting, and dissected and subject to sampling, and the samples were then fixed. […]

C[C@@]12CCCC1C1C[C@@H](O)[C@]3(O)C[C@@H](O)CC[C@]3(C)C1CC2 (stereo partly drawn) [YC-6, 5α-androst-3β,5,6β-triol]
glutamate-induced up-regulation of intracellular PFKFB3 expression (PFKFB3): significantly inhibited this rapid increase | alveolar septal thickening caused by acute hypobaric hypoxia ([1]; 100 mg/kg/two days (i.v. solution and i.m. sustained-release formulation)): significantly reduced the alveolar septal thickening injury | fibrous hyperplasia of alveolar septa, protein hyaline membrane formation and erythrocyte leakage into the alveolar space ([1]; 100 mg/kg/two days): no such obvious changes were observed | inflammatory infiltration and shedding of damaged lung epithelial cells ([1]; 100 mg/kg/two days): no obvious inflammatory infiltration and shedding of damaged lung epithelial cells were observed | pulmonary vascular congestion and swelling ([1]; 100 mg/kg/two days): significantly inhibited pulmonary vascular congestion and swelling
